Like-named read-outs stand apart in the source and are kept apart here.
How the values were obtained:
[1] = system: human tumour cell lines; experiment: Panel of human tumour cell lines, all cell lines (mean graph midpoint); format: cell-based
Protocol: A number of compounds of the invention were further assessed against numerous human malignant cell lines. An average of 49 cell lines from nine different neoplastic diseases, namely leukemia, melanoma, non-small cell lung, colon, central nervous system, ovarian, renal, prostate, and breast cancers were employed.
(§1) In addition, both 5-fluorouracil and melphalan were evaluated towards 57 cell lines. […] MG MID is the average of the potencies of the compound to approximately 50 neoplastic cell lines.

[2] = system: COLO 205; experiment: Human tumour cell line panel, colon cancer COLO 205; format: cell-based
Protocol: as §1

[3] = system: HCT 116; experiment: Human tumour cell line panel, colon cancer HCT 116; format: cell-based
Protocol: as §1

[4] = system: HCT 15; experiment: Human tumour cell line panel, colon cancer HCT 15; format: cell-based; settings: read-out: Colon cancer cells, IC50(μM) HCT 15
Protocol: as §1

[5] = system: KM 12; experiment: Human tumour cell line panel, colon cancer KM 12; format: cell-based
Protocol: as §1

[6] = system: SW 620; experiment: Human tumour cell line panel, colon cancer SW 620; format: cell-based
Protocol: as §1

[7] = system: HCC 2998; experiment: Human tumour cell line panel, colon cancer HCC 2998; format: cell-based
Protocol: as §1

[8] = system: K 562; experiment: Human tumour cell line panel, leukemic K 562; format: cell-based
Protocol: as §1

[9] = system: RPMI 8226; experiment: Human tumour cell line panel, leukemic RPMI 8226; format: cell-based
Protocol: as §1

[10] = system: HL 60; experiment: Human tumour cell line panel, leukemic HL 60; format: cell-based
Protocol: as §1

[11] = system: SR; experiment: Human tumour cell line panel, leukemic SR; format: cell-based
Protocol: as §1

[12] = system: human squamous cell carcinomas HSC-2; experiment: Cytotoxicity CC50, MTT assay, HSC-2
Protocol: (§2) In addition, the compounds were evaluated against human squamous cell carcinomas (HSC-2 and HSC-4) and human promyelocytic leukemia neoplasms (HL-60) and compared with normal cells, i.e. human gingival fibroblasts (HGF), human pulp cells (HPC) and human periodontal ligament fibroblasts (HPLF).
(§3) MTT stands for 3-(4,5-dimethylthiazol-2-yl)-2,5-diphenyltetrazolium bromide). The cells were incubated with varying concentrations of the compounds along with untreated cells for 24 h and the absorbance at 540 nm measured. In the case of the HL-60 assay, the trypan blue exclusion method was followed and cell viability was determined using a haemocytometer. The CC50 values were obtained from dose-response curves (Sakagami, H.; Satoh, K.; Ohata, H.; Takahashi, H.; Yoshida, H.; Iida, M.; Kuribayashi, N.; Sakagami, T.; Momose, K.; Takeda, M. Anticancer Res. 1996, 16, 2635-2644). The general methods used in culturing the cells employed in these cytotoxicity experiments have been described previously (Kawase, M.; Sakagami, H.; Motohashi, N.; Hauer, H.; Chatterjee, S. S.; Spengler, G.; Vigyikanne, A. V.; Molnár, A.; Molnár, J. In Vivo 2005, 19, 705-712; and Takeuchi, R.; Hoshijima, H.; Onuki, N.; Nagasaka, H.; Chowdhury, S. A.; Kawase, M.; Sakagami, H. Anticancer Res. 2005, 25, 4037-4042). In brief, the malignant cells were obtained from Professor Nagumo, Showa University, Japan. The HGF, HPC and HPLF cells were prepared from human periodontal tissue after obtaining informed consent according to the guidelines of Meikai University Ethics Committee, Japan (No. 0206). Since normal cells have a short lifespan, cells at the 3-7 population doubling time were used. With the exception of the HL-60 neoplasm, the cells were cultured in DMEM containing heat-inactivated FBS (10%) at 37° C. in a humidified carbon dioxide atmosphere and subcultured by trypsinization. The HL-60 cells were cultured in a similar fashion except that RPMI 1640 media was employed.

[13] = system: human squamous cell carcinomas HSC-4; experiment: Cytotoxicity CC50, MTT assay, HSC-4
Protocol: as §2, §3

[14] = system: human promyelocytic leukemia HL-60; experiment: Cytotoxicity CC50, trypan blue exclusion, HL-60
Protocol: as §2, §3

[15] = system: human gingival fibroblasts (HGF); experiment: Cytotoxicity CC50, MTT assay, normal HGF cells
Protocol: as §2, §3

[16] = system: human pulp cells (HPC); experiment: Cytotoxicity CC50, MTT assay, normal HPC cells
Protocol: as §2, §3

[17] = system: human periodontal ligament fibroblasts (HPLF); experiment: Cytotoxicity CC50, MTT assay, normal HPLF cells
Protocol: as §2, §3

[18] = system: HSC-2, HSC-4 and HL-60 malignant cells; experiment: Average CC50 for malignant cells
Protocol: as §2, §3

[19] = system: murine L-5178 lymphoma cells transfected with the human MDR1 gene; experiment: MDR reversal, rhodamine 123 fluorescence activity ratio; settings: FAR >1 indicates MDR reversal
Protocol: A solution of the test compound (2 mg/ml, 10 μl) in dimethylsulfoxide was added to aliquots of the cell suspension and incubated at room temperature for 10 minutes. […] The cells were washed twice and resuspended in PBS (pH 7.4) after which the fluorescence was measured using a Beckton Dickinson FACScan instrument. The fluorescence of the cells was measured in treated MDR cells (F1), untreated MDR cells (F2), treated parental cells (F3) […] were obtained from the following equation, viz (F1/F2)/(F3/F4).

[20] = mean graph midpoint, average of 49 (38-59) human tumour cell lines, 48 h incubation, read-out: All cell lines IC50
[21] = 48 h; read-out: Colon cancer cells, IC50(μM) COLO 205
[22] = 48 h; read-out: Colon cancer cells, IC50(μM) HCT 116
[23] = read-out: Colon cancer cells, IC50(μM) KM 12
[24] = 48 h; read-out: Colon cancer cells, IC50(μM) SW 620
[25] = 48 h; read-out: Colon cancer cells, IC50(μM) HCC 2998
[26] = 48 h; read-out: Leukemic cells, IC50(μM) K 562
[27] = 48 h; read-out: Leukemic cells, IC50(μM) RPMI 8226
[28] = 48 h; read-out: Leukemic cells, IC50(μM) HL 60
[29] = 48 h; read-out: Leukemic cells, IC50(μM) SR
[30] = read-out: CC50(μM) HSC-2, 24 h, MTT, average of two determinations
[31] = read-out: CC50(μM) HSC-4, 24 h, MTT, average of two determinations
[32] = read-out: CC50(μM) HL-60, 24 h, trypan blue exclusion, average of two determinations
[33] = read-out: CC50(μM) HGF, normal cells, 24 h, MTT
[34] = read-out: CC50(μM) HPC, normal cells, 24 h, MTT
[35] = read-out: CC50(μM) HPLF, normal cells, 24 h, MTT
[36] = average CC50 for HSC-2, HSC-4 and HL-60 malignant cells
[37] = 48 h; read-out: Colon cancer cells, IC50(μM) KM 12

| Molecule | IC50 [1, 20] | IC50 [2, 21] | IC50 [3, 22] | IC50 ([4]; 48 h) | IC50 [5, 23] | IC50 [6, 24] | IC50 [7, 25] | IC50 [8, 26] | IC50 [9, 27] | IC50 [10, 28] | IC50 [11, 29] | CC50 [12, 30] | CC50 [13, 31] | CC50 [14, 32] | CC50 [15, 33] | CC50 [16, 34] | CC50 [17, 35] | CC50(μM) ave [18, 36] | further results |
| --- | --- | --- | --- | --- | --- | --- | --- | --- | --- | --- | --- | --- | --- | --- | --- | --- | --- | --- | --- |
| 1-[4-(2-Dimethylaminoethoxy)phenylcarbonyl]-3,5-bis(4-methylphenyl-methylene)-4-piperidone hydrochloride hemihydrate [Compound 3d] | 1.15 µM | 1.02 µM | 1.38 µM | 0.912 µM | 0.776 µM | 0.562 µM | 0.229 µM | 1.82 µM | 0.224 µM | 1.32 µM | 0.479 µM | 1.4 µM | 2.1 µM | 0.85 µM | 7.9 µM | 7.2 µM | 3.4 µM | 1.5 µM | – |
| 3,5-bis(4-Chlorophenylmethylene)-1-[4-(2-dimethylaminoethoxy)phenyl-carbonyl]-4-piperidone hydrochloride hemihydrate [Compound 3b] | 1.91 µM | 1.7 µM | 6.03 µM | 0.295 µM | 1.74 µM | 0.209 µM | 0.263 µM | 0.331 µM | 0.098 µM | 1.41 µM | 0.126 µM | 2.3 µM | 1.8 µM | 1.7 µM | 23 µM | 11 µM | 4.3 µM | 1.9 µM | – |
| 3,5-bis(4-Methyl phenylmethylene)-1-[4-{2-(4-morpholinyl)ethoxy}phenylcarbonyl]-4-piperidone hydrochloride hemihydrate [Compound 6d] | < 0.708 µM | 1.15 µM | 2.45 µM | 0.832 µM | 1.12 µM | 1.02 µM | – | 0.275 µM | 0.115 µM | 1.1 µM | 0.245 µM | 1.6 µM | 2 µM | 1.2 µM | 10 µM | 49 µM | 12 µM | 1.6 µM | – |
| O=c1[nH]cc(F)c(=O)[nH]1 [5-Fluorouracil, 5-fluorouracil, reference compound] | > 29.5 µM | – | – | – | – | – | – | – | – | – | – | – | – | – | – | – | – | – | S.I. (selectivity index) ([1]; ratio of the IC50 figures for the least and most sensitive cell lines): >4365; IC50 ([2]; Homo sapiens, COLO 205, 48 h; read-out: Colon cancer cells, IC50(μM) COLO 205): 3.39 µM; IC50 ([3]; Homo sapiens, HCT-116, 48 h; read-out: Colon cancer cells, IC50(μM) HCT 116): 2.04 µM; IC50 ([4]; Homo sapiens, HCT-15, 48 h): 6.61 µM; IC50 ([5]; Homo sapiens, KM12, 48 h; read-out: Colon cancer cells, IC50(μM) KM 12): 7.94 µM; IC50 ([6]; Homo sapiens, SW-620, 48 h; read-out: Colon cancer cells, IC50(μM) SW 620): 18.6 µM; IC50 ([7]; Homo sapiens, HCC 2998, 48 h; read-out: Colon cancer cells, IC50(μM) HCC 2998): 5.75 µM; IC50 ([8]; Homo sapiens, K562, 48 h; read-out: Leukemic cells, IC50(μM) K 562): 126 µM; IC50 ([9]; Homo sapiens, RPMI-8226, 48 h; read-out: Leukemic cells, IC50(μM) RPMI 8226): 3.55 µM; IC50 ([10]; Homo sapiens, HL-60, 48 h; read-out: Leukemic cells, IC50(μM) HL 60): 85.1 µM; IC50 ([11]; Homo sapiens, SR, 48 h; read-out: Leukemic cells, IC50(μM) SR): 60.3 µM |
| O=C1C(=Cc2ccccc2)CNCC1=Cc1ccccc1 [Compound 1a] | 1.62 µM | 1.55 µM | 0.182 µM | 0.631 µM | – | 0.575 µM | 2 µM | 0.49 µM | 0.275 µM | 0.363 µM | 0.209 µM | – | – | – | – | – | – | – | IC50 [5, 37]: 0.794 µM; FAR value 4 μg/ml ([19]; compound 4 μg/ml): 1.58; FAR value 40 μg/ml ([19]; compound 40 μg/ml): 2.00; CC50 [12]: 2.2 µM; CC50 [13]: 4.4 µM; CC50 [14]: 1.5 µM; CC50 [15]: 20 µM; CC50 [16]: 38 µM; CC50 [17]: 24 µM; CC50(μM) ave [18]: 2.7 µM |
| Cl.O=C1C(=Cc2ccc(Cl)cc2)CN(C(=O)c2ccc(OCCN3CCOCC3)cc2)CC1=Cc1ccc(Cl)cc1 [Compound 6b, 3,5-bis(4-Chlorophenylmethylene)-1-[4-{2-(4-morpholinyl)ethoxy}phenylcarbonyl-4-piperidone hydrochloride] | < 0.562 µM | – | 7.25 µM | 2.19 µM | – | 1.45 µM | < 0.005 µM | 6.76 µM | 0.132 µM | 5.5 µM | – | – | – | – | – | – | – | – | IC50 [5, 37]: 2.29 µM; CC50 [12]: 71 µM; CC50 [13]: 18 µM; CC50 [14]: 36 µM; CC50 [15]: 400 µM; CC50 [16]: > 400 µM; CC50 [17]: 360 µM |
| N[C@@H](Cc1ccc(N(CCCl)CCCl)cc1)C(=O)O [Melphalan, reference compound] | – | – | – | – | – | – | – | – | – | – | – | – | – | – | > 200 µM | > 200 µM | > 200 µM | 40.7 µM | IC50 ([1]; Homo sapiens, 48 h, read-out: All cell lines IC50(μM)): 26.9 µM; IC50 ([2]; Homo sapiens, COLO 205, 48 h, read-out: Colon cancer cells, IC50(μM) COLO 205): 66.1 µM; IC50 ([3]; Homo sapiens, HCT-116, 48 h, read-out: Colon cancer cells, IC50(μM) HCT 116): 30.2 µM; IC50 ([5]; Homo sapiens, KM12, 48 h, read-out: Colon cancer cells, IC50(μM) KM 12): 43.7 µM; IC50 ([6]; Homo sapiens, SW-620, 48 h, read-out: Colon cancer cells, IC50(μM) SW 620): 38.9 µM; IC50 ([7]; Homo sapiens, HCC 2998, 48 h, read-out: Colon cancer cells, IC50(μM) HCC 2998): 41.7 µM; IC50 ([8]; Homo sapiens, K562, 48 h, read-out: Leukemic cells, IC50(μM) K 562): 43.7 µM; IC50 ([9]; Homo sapiens, RPMI-8226, 48 h, read-out: Leukemic cells, IC50(μM) RPMI 8226): 66.1 µM; IC50 ([10]; Homo sapiens, HL-60, 48 h, read-out: Leukemic cells, IC50(μM) HL 60): 2.04 µM; IC50 ([11]; Homo sapiens, SR, 48 h, read-out: Leukemic cells, IC50(μM) SR): 1.86 µM; CC50 ([12]; Homo sapiens, HSC-2, 24 h, read-out: CC50(μM) HSC-2): 35 µM; CC50 ([13]; Homo sapiens, HSC-4, 24 h, read-out: CC50(μM) HSC-4): 81 µM; CC50 ([14]; Homo sapiens, HL-60, 24 h, read-out: CC50(μM) HL-60): 6 µM |

Reference: patent publication US7582655B2, “Antineoplastic compounds” (University of Saskatchewan, priority 2005, dated 2009)
